Assay: xn = mol fraction of the nth substance listed
Conditions: Liquid, Vibrating tube method

C=C(C)C(=O)OCCN(C)C [2-(dimethylamino)ethyl methylpropenoate] + CO
mass density [kg/m3]
Conditions | 100 kPa | 5000 kPa | 10000 kPa | 15000 kPa | 20000 kPa | 25000 kPa | 30000 kPa | 35000 kPa
293.15 K, x1 = 0.0227 | 806.56 | 811.24 | 815.62 | 819.73 | 823.64 | 827.39 | 831.04 | 834.64
293.15 K, x1 = 0.0807 | 837.79 | 842.2 | 846.3 | 850.16 | 853.82 | 857.37 | 860.86 | 864.36
293.15 K, x1 = 0.1196 | 853.33 | 857.5 | 861.44 | 865.18 | 868.77 | 872.24 | 875.62 | 878.97
293.15 K, x1 = 0.2003 | 877.11 | 881.14 | 884.9 | 888.45 | 891.85 | 895.18 | 898.5 | 901.87
293.15 K, x1 = 0.3189 | 898.63 | 902.57 | 906.24 | 909.71 | 913.03 | 916.26 | 919.46 | 922.7
293.15 K, x1 = 0.4003 | 908.22 | 912.08 | 915.72 | 919.18 | 922.49 | 925.73 | 928.92 | 932.12
293.15 K, x1 = 0.4502 | 912.84 | 916.76 | 920.42 | 923.87 | 927.16 | 930.33 | 933.44 | 936.53
293.15 K, x1 = 0.4914 | 916.03 | 919.88 | 923.47 | 926.87 | 930.13 | 933.31 | 936.47 | 939.66
293.15 K, x1 = 0.5451 | 919.46 | 923.35 | 926.95 | 930.34 | 933.58 | 936.74 | 939.88 | 943.07
293.15 K, x1 = 0.6446 | 924.39 | 928.12 | 931.65 | 935.02 | 938.27 | 941.45 | 944.62 | 947.8
293.15 K, x1 = 0.6899 | 926.07 | 929.92 | 933.48 | 936.82 | 940.01 | 943.12 | 946.23 | 949.4
293.15 K, x1 = 0.8265 | 930.1 | 933.94 | 937.53 | 940.91 | 944.15 | 947.29 | 950.41 | 953.56
293.15 K, x1 = 0.8957 | 931.56 | 935.27 | 938.82 | 942.24 | 945.55 | 948.77 | 951.92 | 955.03
293.15 K, x1 = 0.9213 | 931.89 | 935.76 | 939.37 | 942.76 | 946.01 | 949.17 | 952.32 | 955.5
293.15 K, x1 = 0.977 | 932.63 | 936.53 | 940.13 | 943.52 | 946.76 | 949.92 | 953.08 | 956.32
303.15 K, x1 = 0.0301 | 802.01 | 806.85 | 811.37 | 815.62 | 819.63 | 823.45 | 827.13 | 830.7
303.15 K, x1 = 0.0604 | 818.68 | 823.37 | 827.77 | 831.91 | 835.85 | 839.61 | 843.23 | 846.75
303.15 K, x1 = 0.1003 | 836.41 | 840.87 | 845.1 | 849.12 | 852.97 | 856.67 | 860.27 | 863.78
303.15 K, x1 = 0.1894 | 864.5 | 868.73 | 872.74 | 876.58 | 880.26 | 883.85 | 887.36 | 890.85
303.15 K, x1 = 0.3009 | 886 | 890.03 | 893.92 | 897.69 | 901.34 | 904.9 | 908.38 | 911.78
303.15 K, x1 = 0.4011 | 898.17 | 902.15 | 905.98 | 909.67 | 913.27 | 916.78 | 920.23 | 923.64
303.15 K, x1 = 0.4497 | 902.64 | 906.61 | 910.42 | 914.09 | 917.65 | 921.14 | 924.58 | 928.02
303.15 K, x1 = 0.5004 | 906.39 | 910.32 | 914.1 | 917.76 | 921.33 | 924.83 | 928.29 | 931.73
303.15 K, x1 = 0.5484 | 909.57 | 913.52 | 917.31 | 920.96 | 924.51 | 928 | 931.44 | 934.88
303.15 K, x1 = 0.6026 | 912.38 | 916.33 | 920.1 | 923.74 | 927.27 | 930.75 | 934.2 | 937.68
303.15 K, x1 = 0.701 | 916.45 | 920.39 | 924.17 | 927.81 | 931.36 | 934.84 | 938.28 | 941.72
303.15 K, x1 = 0.7881 | 919.15 | 923.04 | 926.8 | 930.44 | 934.01 | 937.52 | 941.01 | 944.48
303.15 K, x1 = 0.897 | 921.41 | 925.26 | 929.01 | 932.67 | 936.24 | 939.76 | 943.23 | 946.67
303.15 K, x1 = 0.9286 | 922.08 | 926.03 | 929.81 | 933.47 | 937.03 | 940.52 | 943.99 | 947.48
303.15 K, x1 = 0.961 | 922.67 | 926.57 | 930.33 | 933.98 | 937.54 | 941.04 | 944.51 | 947.99
313.15 K, x1 = 0.0303 | 792.52 | 797.34 | 802.01 | 806.47 | 810.73 | 814.85 | 818.84 | 822.75
313.15 K, x1 = 0.0601 | 808.67 | 813.36 | 817.9 | 822.24 | 826.41 | 830.42 | 834.31 | 838.11
313.15 K, x1 = 0.1002 | 826.53 | 831.11 | 835.57 | 839.84 | 843.93 | 847.86 | 851.66 | 855.32
313.15 K, x1 = 0.2005 | 857.05 | 861.4 | 865.62 | 869.66 | 873.55 | 877.31 | 880.98 | 884.59
313.15 K, x1 = 0.3009 | 876.08 | 880.25 | 884.34 | 888.29 | 892.1 | 895.78 | 899.34 | 902.8
313.15 K, x1 = 0.4008 | 888.55 | 892.6 | 896.62 | 900.51 | 904.28 | 907.92 | 911.43 | 914.81
313.15 K, x1 = 0.4516 | 893.1 | 897.1 | 901.09 | 904.98 | 908.76 | 912.41 | 915.91 | 919.27
313.15 K, x1 = 0.49 | 896.14 | 900.12 | 904.09 | 907.97 | 911.73 | 915.36 | 918.87 | 922.22
313.15 K, x1 = 0.552 | 900.13 | 904.12 | 908.1 | 911.97 | 915.72 | 919.34 | 922.83 | 926.18
313.15 K, x1 = 0.5881 | 902.29 | 906.26 | 910.2 | 914.04 | 917.76 | 921.35 | 924.82 | 928.16
313.15 K, x1 = 0.7048 | 907.14 | 911.12 | 915.08 | 918.92 | 922.65 | 926.25 | 929.72 | 933.06
313.15 K, x1 = 0.8042 | 910.23 | 914.21 | 918.18 | 922.04 | 925.78 | 929.4 | 932.87 | 936.18
313.15 K, x1 = 0.8998 | 912.3 | 916.37 | 920.38 | 924.25 | 927.99 | 931.6 | 935.1 | 938.49
313.15 K, x1 = 0.9373 | 913.06 | 917.05 | 921 | 924.83 | 928.56 | 932.18 | 935.71 | 939.17
313.15 K, x1 = 0.9651 | 913.5 | 917.5 | 921.47 | 925.34 | 929.11 | 932.78 | 936.35 | 939.83
